Test results taken from patent US10364222B2, “Cyclic amine derivative and medical use thereof” (Toray Industries, Inc., priority 2016, dated 2019).

Experiments:
[1] = target: T1, ligand-binding domain of RORγ (RORγ-LBD) (Homo sapiens, UniProt P51449); test: Inhibitory effect on RORγ-coactivator binding (LanthaScreen TR-FRET RORγ Coactivator Assay); conditions: at 33 μmol/L of the test compound; read-out: RORγ-coactivator binding inhibition rate (%)
T1 construct: purchased Invitrogen
T1 sequence (P51449 269-508 limits assumed): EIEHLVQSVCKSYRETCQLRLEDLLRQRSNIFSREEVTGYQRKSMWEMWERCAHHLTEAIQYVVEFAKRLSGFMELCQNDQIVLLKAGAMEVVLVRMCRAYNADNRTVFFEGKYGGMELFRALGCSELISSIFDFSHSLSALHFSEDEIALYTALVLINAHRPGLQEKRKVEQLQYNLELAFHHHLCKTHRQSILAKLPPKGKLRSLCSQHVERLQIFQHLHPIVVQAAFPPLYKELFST
How it was run: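 TR-FRET: 4 nmol/L GST-RORγ-LBD with compound (1% DMSO) in Coregulator Buffer D plus 5 mmol/L DTT, then 150 nmol/L fluorescein-TRAP220/DRIP-2 and 32 nmol/L Tb-anti-GST antibody; 16–24 hours at room temperature. 520/495 nm ratio (320 nm excitation), background-corrected against control, gives % inhibition of coactivator binding.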

[2] = tested on: IL-17 production in mouse splenocytes; test: Suppressive effect on IL-17 production by IL-23 stimulation in mouse splenocytes; assay type: cell-based; conditions: Splenocyte, 72 h, at 5 μmol/L of the test compound, 10 ng/mL human IL-23, 3 days, read-out: IL-17 production inhibition rate (%)
How it was run: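 Splenocytes from male C57BL/6J mice (3×10^5/well, with 100 U/mL human IL-2) stimulated with 10 ng/mL human IL-23 plus compound (0.1% DMSO) for 3 days at 37 °C. Supernatant IL-17 measured by ELISA; inhibition calculated against unstimulated and IL-23-only wells.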

## CC(=O)N1CCCC[C@@H]1C(=O)Nc1ccc(-c2ccccc2OC(F)(F)F)c(Cl)c1 [Example 20, (R)-1-acetyl-N-(2-chloro-2′-(trifluoromethoxy)-[1,1′-biphenyl]-4-yl)piperidine-2-carboxamide]
[1]
  inhibition at 33 µM: 101%
[2]
  inhibition at 5 µM: 99.7%

## CN(CC(=O)N1CCCC[C@@H]1C(=O)Nc1ccc(-c2ccccc2OC(F)(F)F)c(Cl)c1)S(C)(=O)=O [Example 29, (R)-N-(2-chloro-2′-(trifluoromethoxy)-[1,1′-biphenyl]-4-yl)-1-(2-(N-methylmethylsulfonamide)acetyl)piperidine-2-carboxamide]
[1]
  inhibition at 33 µM: 101%
[2]
  inhibition at 5 µM: 100%

## O=C(Nc1ccc(-c2ccccc2OC(F)(F)F)c(Cl)c1)[C@H]1CCCCN1C(=O)Cn1cnnn1 [Example 57, (R)-1-(2-(1H-tetrazol-1-yl)acetyl)-N-(2-chloro-2′-(trifluoromethoxy)-[1,1′-biphenyl]-4-yl)piperidine-2-carboxamide]
[1]
  inhibition at 33 µM: 103%
[2]
  inhibition at 5 µM: 101%
